From patent publication US6087358A (priority 1997, dated 2000)
≈ marks a conversion by molar mass, not a printed value. Where two headings read alike, the source gives them in different places.

Experiments:
[1] = system: Mycobacterium bovis BCG (recombinant strain); experiment: microbe, parasite or virus in culture; assay type: cell-based; settings: 6 days 37° C.; for MIC: Mycobacterium tuberculosis variant bovis BCG, BCG, 144 h, read-out: MIC, column A, 3(S) compounds
[2] = system: Clostridium difficile ATCC 17857; experiment: In vitro inhibition of Clostridium difficile (Oxyrase broth microdilution MIC); assay type: cell-based; settings: Clostridioides difficile, ATCC17857; Clostridium difficile ATCC 17857, Oxyrase broth; read-out: MIC, column D, 3(S) compounds
[3] = system: Mycobacterium tuberculosis (rMTB); experiment: In vivo antimycobacterial activity against M. tuberculosis (rMTB) in spleens of mice; design: species or system Mycobacterium tuberculosis Erdman, in female BALB/c mice; settings: 25 mg/kg daily oral gavage, CM-2, 10 days, control 422,866 (PA-824, 636, 1297) or 362,274 (others)
[4] = system: Mycobacterium tuberculosis (rMTB); experiment: In vivo antimycobacterial activity against M. tuberculosis (rMTB) in lungs of mice; design: species or system Mycobacterium tuberculosis Erdman, in female BALB/c mice; settings: 25 mg/kg daily oral gavage, CM-2, 10 days, control 117,258 (PA-824, 636, 1297) or 22,751 (others)
Cryptosporidium parvum = experiment: Inhibition of Cryptosporidium parvum (ELISA, infected HCT-8 monolayers); assay type: cell-based; settings: Cryptosporidium parvum, HCT-8, 48 h, read-out: Percent Inhibition of C. parvum; for inhibition at 25 µg/mL: 25 μg/mL; for inhibition at 50 µg/mL: 50 μg/mL; for inhibition at 100 µg/mL: 100 μg/mL; for inhibition at 200 µg/mL: 200 μg/mL
Description: Susceptibility testing against Cryptosporidium was performed according to published procedures (K. Woods, M. Nesterenko, S. Upton, "Development of a microtiter ELISA to quantify development of Cryptosporidium parvum in vitro," FEMS Microbiology Letters, 128:89-94 (1995).
Compounds were solubilized to a concentration of 100 mg/mL in 100% DMSO. DMSO solutions of test compounds were added to the test wells of a microplate at a volume that produced a final concentration of DMSO of 0.2%. Monolayers of human ileocecal adenocarcinoma cells (HCT-8) were prepared by growth in RPMI 1640 medium in 96-Well tissue culture trays for 24 h. Oocysts of C. parvum were allowed to excyst in 10% bleach for 10 min prior to use. Monolayers were then infected with 2-3×10^4 oocysts/well and incubated in the presence or absence of compound for 48 h at 35° C. in 5% CO2 and 95% humidity. Background consisted of wells containing killed oocysts (freeze thaw cycle following 30 sec exposure to liquid nitrogen). Growth control wells were infected with 2-3×10^4 oocysts/well in the absence of test compounds. At the end of incubation, wells were washed and fixed by adding 100 uL of 4% formalin in phosphate buffered saline (pH 7.3) per well for 2 h. After blocking with 1% bovine serum albumin, and 0.002% Tween 20, 50 uL of rat anti-Cryptosporidium membrane protein antiserum was added. After 30 min, wells were washed in PBS and 50 uL of secondary antibody (goat anti-rat antibody conjugated with horseradish peroxidase) was added. After 20-30 min, wells were washed again in PBS and 50 uL of 3,3',5,5'-tetramethylbenzidine solution was added. Plates were allowed to develop for 10-15 min and the optical density was read at 630 nm. Percent inhibition was calculated by comparing the optical density of the drug treated group to that of the untreated control.

Helicobacter pylori = experiment: In vitro inhibition of Helicobacter pylori (broth microdilution MIC); settings: Helicobacter pylori
[5] = system: Helicobacter pylori Strain 4187E; experiment: In vivo activity against Helicobacter pylori strain 4187E in mice; design: species or system in outbred female white mice; settings: oral gavage, four days
Excerpt: Outbred female white mice (20 grams) were infected by oral gavage with 10^7 -10^8 colony forming units of H. pylori strain 4187E (originally isolated from a patient with a duodenal ulcer). […] Treatment continued for four days. Clarithromycin, administered at the same concentration and for the same duration, was included as a positive control. One group of animals also received an equal volume of formulation vehicle alone, to provide a negative control.
Five days after cessation of treatment, all animals were sacrificed, the stomachs were removed, opened, and the contents washed out. The entire mucosal surface was then spread evenly over the surface of an agar plate containing antibiotics appropriate for the prevention of growth of microorganisms other than Helicobacter spp. After seven days incubation under microaeropilic conditions at 37° C., culture plates were evaluated for bacterial growth.

Helicobacter felis = experiment: In vivo activity against Helicobacter felis in mice (urease test of stomach biopsy); design: species or system in female CD-1 mice; settings: 50 mg/kg three times daily oral gavage, CM-2, four days; vehicle and untreated 100
Description: Female CD-1 mice weighing 30 grams were infected by oral gavage with 10^8 -10^9 colony forming units of H. felis. This infection process was repeated two, and four days, thereafter. Colonization of the stomach was allowed to occur over a seven day period. Animals were segregated into groups of five, and were treated three times daily by oral gavage with 50 mg/kg of test drugs prepared in the CM-2 formulation vehicle (Example 52). Treatment continued for four days. One group of animals received an equal volume of formulation vehicle alone, to ensure that the vehicle had no effect on the Helicobacter infection. A separate untreated control group was also included.
All animals were then sacrificed, the stomachs were removed, opened, and the contents washed out. A five millimeter diameter biopsy was removed, and transferred to a urease test solution containing a pH-sensitive dye, which was then incubated at 37° C. incubator for 24 hours. A blue or purple coloration in this test solution signifies a positive reaction, indicating the continued presence of viable Helicobacter bacteria; a negative result is indicated by a yellow coloration. Viable Helicobacter bacteria produce a urease enzyme which converts urea, of which there is an abundant supply in the stomach (from saliva and gastric juices), into bicarbonate and ammonia, which are strong bases. This mechanism is considered to provide conditions more amenable to the survival of Helicobacter in the otherwise acidic conditions prevalent in the stomach.

[6] = 72 h, read-out: MIC against Helicobacter pylori, strain 17 (Table 5A)
[7] = 72 h, read-out: MIC against Helicobacter pylori, strain 19 (Table 5A)
[8] = 72 h, read-out: MIC against Helicobacter pylori, strain 20 (Table 5A)
[9] = 72 h, read-out: MIC against Helicobacter pylori, strain 40 (Table 5A)
[10] = 72 h, read-out: MIC against Helicobacter pylori, strain 43 (Table 5A)
[11] = 72 h, read-out: MIC against Helicobacter pylori, strain 76 (Table 5A)
[12] = ATCC43504, 72 h, read-out: MIC against Helicobacter pylori, strain ATCC 43504 (Table 5A)

| Compound | MIC [1] | MIC [2] | Average RLUs, M. tuberculosis (rMTB) in spleens [3] | Average RLUs, M. tuberculosis (rMTB) in lungs [4] | inhibition at 25 µg/mL (Cryptosporidium parvum) | inhibition at 50 µg/mL (Cryptosporidium parvum) | inhibition at 100 µg/mL (Cryptosporidium parvum) | inhibition at 200 µg/mL (Cryptosporidium parvum) | MIC (Helicobacter pylori; [6]) | MIC (Helicobacter pylori; [7]) | MIC (Helicobacter pylori; [8]) | MIC (Helicobacter pylori; [9]) | MIC (Helicobacter pylori; [10]) | MIC (Helicobacter pylori; [11]) | MIC (Helicobacter pylori; [12]) | % Eradication ([5]; once daily 25 mg/kg) | % Eradication ([5]; twice daily 5 mg/kg) | % Eradication ([5]; twice daily 50 mg/kg) | % Survival (Helicobacter felis) | MIC, column A, 3(S) compounds [1] |
| --- | --- | --- | --- | --- | --- | --- | --- | --- | --- | --- | --- | --- | --- | --- | --- | --- | --- | --- | --- | --- |
| O=[N+]([O-])c1cn2c(n1)OC[C@@H](OCc1ccc(C(F)(F)F)cc1)C2 [PA-636, 3S 4-(Trifluromethyl)benzyloxy-6-nitro-2H-3,4-dihydo-[2-1b]imidazopyran] | 0.5 µg/mL (≈ 1.46 µM) | 3.12 µg/mL (≈ 9.09 µM) | 91,377 RLUs | 5,790 RLUs | 14.5% | 9.4% | 21% | 39% | – | – | – | – | – | – | – | – | – | – | – | – |
| CCCCCCCCC(=O)N[C@@H]1COc2nc([N+](=O)[O-])cn2C1 [PA-1139] | 0.06 µg/mL (≈ 0.185 µM) | 3.12 µg/mL (≈ 9.62 µM) | – | – | -13% | -3% | 56% | 98.9% | > 25 µg/mL | 1.5 µg/mL (≈ 4.62 µM) | 0.8 µg/mL (≈ 2.47 µM) | 0.8 µg/mL (≈ 2.47 µM) | 1.5 µg/mL (≈ 4.62 µM) | 25 µg/mL (≈ 77.1 µM) | > 25 µg/mL | – | – | – | – | – |
| O=C(NCc1ccc(OC(F)(F)F)cc1)O[C@@H]1COc2nc([N+](=O)[O-])cn2C1 [PA-1328, 4-(Trifluoromethoxy)benzyl Carbamate of 3S Hydroxy-6-nitro-2H-3,4-dihydo-[2-1b]imidazopyran] | 0.03 µg/mL (≈ 0.0746 µM) | – | 251,264 RLUs | 3,000 RLUs | – | – | – | – | – | – | – | – | – | – | – | – | – | – | – | – |
| CCCCc1ccc(CO[C@@H]2COc3nc([N+](=O)[O-])cn3C2)cc1 [PA-822] | 0.06 µg/mL (≈ 0.181 µM) | 12.5 µg/mL (≈ 37.7 µM) | – | – | – | – | – | – | 25 µg/mL (≈ 75.4 µM) | 0.2 µg/mL (≈ 0.604 µM) | 0.2 µg/mL (≈ 0.604 µM) | 0.2 µg/mL (≈ 0.604 µM) | 0.4 µg/mL (≈ 1.21 µM) | 6.25 µg/mL (≈ 18.9 µM) | > 25 µg/mL | 0% | 0% | 0% | 100% | – |
| 4-Bromobenzyl Carbamate of 3S 3-Hydroxy-6-nitro-3,4-dihydro-[2-1b]imidazopyran [PA-1324] | – | – | 85,130 RLUs | 1,612 RLUs | – | – | – | – | – | – | – | – | – | – | – | – | – | – | – | 0.015 |
